From US11566007B2, “Ras inhibitors” (Revolution Medicines, Inc., priority 2019, dated 2023)

Columns and labels:
[1] = target: KRAS WT (Homo sapiens (Human), UniProt P01116+P62937); test: Ras-Raf (BRAF RBD) disruption / FRET / MOA assay, KRAS WT; format: biochemical; settings: read-out: IC50* KRAS WT FRET data
In short: (§1)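 A 10-point, 3-fold dilution series topping at 30 μM final was incubated 3 h at 25° C with the Ras/cyclophilin A/BRAF RBD mixture.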

[2] = tested on: NCI-H358 cells (K-Ras G12C); test: Potency assay: pERK in NCI-H358 cells; format: cell-based, human; settings: Homo sapiens, NCI-H358; H358 KRAS G12C; read-out: pERK EC50
In short: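 pERK decrease read by AlphaLISA SureFire p-ERK1/2 or In-Cell Western after 4 h compound exposure at 37 °C, 5% CO2.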

[3] = target: KRAS Q61H (Homo sapiens (Human), UniProt P01116+P62937, Q61H); test: Ras-Raf (BRAF RBD) disruption / FRET / MOA assay, KRAS Q61H; format: biochemical; settings: Ras-Raf disruption/FRET/MOA assay; class symbols; read-out: KRAS Q61H FRET data IC50
In short: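 Compounds (30 μM top final, 10-point 3-fold dilutions) incubated 3 h at 25° C with nucleotide-loaded Ras, cyclophilin A and BRAF RBD. Detection with 10 nM anti-His Eu-W1024 and 50 nM anti-GST allophycocyanin over another 1.5 h. Lowered TR-FRET ratio relative to DMSO wells gives IC50.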

[4] = target: KRAS G12V (Homo sapiens (Human), UniProt P01116+P62937, G12V); test: Ras-Raf (BRAF RBD) disruption / FRET / MOA assay, KRAS G12V; format: biochemical; settings: read-out: IC50* KRAS G12V FRET data
In short: as §1

[5] = target: NRAS Q61K (Homo sapiens (Human), UniProt P01111+P62937, Q61K); test: Ras-Raf (BRAF RBD) disruption / FRET / MOA assay, NRAS Q61K; format: biochemical; settings: NRAS Q61K; Ras-Raf disruption/FRET/MOA assay; read-out: IC50* NRAS Q61K FRET data
Protocol: (§2) The purpose of this biochemical assay is to measure the ability of test compounds to facilitate ternary complex formation between a nucleotide-loaded Ras isoform and cyclophilin A; the resulting ternary complex disrupts binding to a BRAF^RBD construct, inhibiting Ras signaling through a RAF effector.
(§3) […]. Compound is present in plate wells as a 10-point 3-fold dilution series starting at a final concentration of 30 μM. After incubation at 25° C. for 3 hours, a mixture of Anti-His Eu-W1024 and anti-GST allophycocyanin is then added to assay sample wells at final concentrations of 10 nM and 50 nM, respectively, and the reaction incubated for an additional 1.5 hours. […] Compounds that facilitate disruption of a Ras:RAF complex are identified as those eliciting a decrease in the TR-FRET ratio relative to DMSO control wells.
(§4) Note—The following protocol describes a procedure for monitoring disruption of K-Ras G12C (GMP-PNP) binding to BRAF^RBD by a compound of the invention. This protocol may also be executed substituting other Ras proteins or nucleotides.
(§5) The purpose of this biochemical assay was to measure the ability of test compounds to facilitate ternary complex formation between a nucleotide-loaded K-Ras isoform and Cyclophilin A; the resulting ternary complex disrupts binding to a BRAF^RBD construct, inhibiting K-Ras signaling through a RAF effector. Data is reported as IC50 values.
(§6) […]. Compound was present in plate wells as a 10-point 3-fold dilution series starting at a final concentration of 30 μM. After incubation at 25° C. for 3 hours, a mixture of Anti-His Eu-W1024 and anti-GST allophycocyanin was then added to assay sample wells at final concentrations of 10 nM and 50 nM, respectively, and the reaction incubated for an additional 1.5 hours. […] Compounds that facilitate disruption of a K-Ras:RAF complex were identified as those eliciting a decrease in the TR-FRET ratio relative to DMSO control wells.

[6] = target: KRAS G12S (Homo sapiens (Human), UniProt P01116+P62937, G12S); test: Ras-Raf (BRAF RBD) disruption / FRET / MOA assay, KRAS G12S; format: biochemical; settings: Ras-Raf disruption/FRET/MOA assay; class symbols; read-out: KRAS G12S FRET data IC50
In short: as §1

[7] = target: KRAS G13D (Homo sapiens (Human), UniProt P01116+P62937, G13D); test: Ras-Raf (BRAF RBD) disruption / FRET / MOA assay, KRAS G13D; format: biochemical; settings: read-out: IC50* KRAS G13D FRET data
In short: as §1

[8] = target: NRAS WT (Homo sapiens (Human), UniProt P01111+P62937); test: Ras-Raf (BRAF RBD) disruption / FRET / MOA assay, NRAS WT; format: biochemical; settings: read-out: IC50* NRAS WT FRET data
Protocol: as §2, §3, §4, §5, §6

[9] = target: NRAS Q61R (Homo sapiens (Human), UniProt P01111+P62937, Q61R); test: Ras-Raf (BRAF RBD) disruption / FRET / MOA assay, NRAS Q61R; format: biochemical; settings: NRAS Q61R; Ras-Raf disruption/FRET/MOA assay; read-out: IC50* NRAS Q61R FRET data
Protocol: as §2, §3, §4, §5, §6

[10] = target: NRAS G12C (Homo sapiens (Human), UniProt P01111+P62937, G12C); test: Ras-Raf (BRAF RBD) disruption / FRET / MOA assay, NRAS G12C; format: biochemical; settings: read-out: IC50* NRAS G12C FRET data
In short: as §1

[11] = target: K-Ras G13C (Homo sapiens (Human), UniProt P01116+P62937, G13C); test: Ras-Raf (BRAF RBD) disruption / FRET / MOA assay, KRAS G13C; format: biochemical; settings: KRAS G13C; Ras-Raf disruption/FRET/MOA assay; read-out: IC50* KRAS G13C FRET data
In short: as §1

[12] = target: KRAS G12D (Homo sapiens (Human), UniProt P01116+P62937, G12D); test: Ras-Raf (BRAF RBD) disruption / FRET / MOA assay, KRAS G12D; format: biochemical; settings: Ras-Raf disruption/FRET/MOA assay; class symbols; read-out: KRAS G12D FRET data IC50
In short: as §1

[13] = target: K-Ras G12C (Homo sapiens (Human), UniProt P01116+P62937, G12C); test: Ras-Raf (BRAF RBD) disruption / FRET / MOA assay, KRAS G12C; format: biochemical; settings: KRAS G12C; Ras-Raf disruption/FRET/MOA assay; read-out: IC50* KRAS G12C FRET data
In short: as §1

K-Ras G13C, sequence (P01116-2 other isoform, or with tags, fused parts or gaps G13C): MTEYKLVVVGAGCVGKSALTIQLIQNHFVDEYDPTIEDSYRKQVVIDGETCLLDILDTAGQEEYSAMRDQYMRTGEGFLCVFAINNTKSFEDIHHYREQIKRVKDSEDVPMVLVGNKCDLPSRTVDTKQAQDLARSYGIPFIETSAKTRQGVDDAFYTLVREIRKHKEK
K-Ras G13C, sequence (P62937 whole entry): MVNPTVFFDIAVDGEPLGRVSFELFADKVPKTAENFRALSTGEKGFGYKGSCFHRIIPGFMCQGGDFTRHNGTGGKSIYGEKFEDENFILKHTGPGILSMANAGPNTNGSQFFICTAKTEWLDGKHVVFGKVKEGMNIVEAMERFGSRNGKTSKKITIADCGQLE
NRAS G12C, sequence (P01111 whole entry G12C): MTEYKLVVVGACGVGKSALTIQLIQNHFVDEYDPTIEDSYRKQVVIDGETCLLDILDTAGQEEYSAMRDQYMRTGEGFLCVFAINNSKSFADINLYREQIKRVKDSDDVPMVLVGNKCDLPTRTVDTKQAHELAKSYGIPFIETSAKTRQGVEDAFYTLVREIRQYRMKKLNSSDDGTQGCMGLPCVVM
NRAS G12C, sequence (P62937 whole entry): as the sequence (P62937 whole entry) above
KRAS G13D, sequence (P01116-2 other isoform, or with tags, fused parts or gaps G13D): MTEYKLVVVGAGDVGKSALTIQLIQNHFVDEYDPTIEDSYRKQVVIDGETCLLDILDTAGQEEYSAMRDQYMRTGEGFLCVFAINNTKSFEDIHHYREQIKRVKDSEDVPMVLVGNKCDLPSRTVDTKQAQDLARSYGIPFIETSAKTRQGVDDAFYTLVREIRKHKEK
KRAS G13D, sequence (P62937 whole entry): as the sequence (P62937 whole entry) above
KRAS WT, sequence (P01116-2 other isoform, or with tags, fused parts or gaps): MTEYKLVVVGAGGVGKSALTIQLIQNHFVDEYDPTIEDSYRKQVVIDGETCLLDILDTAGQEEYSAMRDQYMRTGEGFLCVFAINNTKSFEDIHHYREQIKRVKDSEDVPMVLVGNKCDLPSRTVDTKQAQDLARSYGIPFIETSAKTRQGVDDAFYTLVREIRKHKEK
KRAS WT, sequence (P62937 whole entry): as the sequence (P62937 whole entry) above
KRAS G12S, sequence (P01116-2 other isoform, or with tags, fused parts or gaps G12S): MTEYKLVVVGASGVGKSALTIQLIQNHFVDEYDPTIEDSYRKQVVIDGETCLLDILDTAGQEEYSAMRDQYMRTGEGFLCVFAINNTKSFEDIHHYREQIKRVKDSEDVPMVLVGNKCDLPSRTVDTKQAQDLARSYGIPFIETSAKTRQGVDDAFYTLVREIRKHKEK
KRAS G12S, sequence (P62937 whole entry): as the sequence (P62937 whole entry) above
NRAS Q61K, sequence (P01111 whole entry Q61K, canonical isoform): as the sequence (P01111 whole entry G12C) above, with C12G, Q61K counted along it
NRAS Q61K, sequence (P62937 whole entry, canonical isoform): as the sequence (P62937 whole entry) above
KRAS G12D, sequence (P01116-2 other isoform, or with tags, fused parts or gaps G12D): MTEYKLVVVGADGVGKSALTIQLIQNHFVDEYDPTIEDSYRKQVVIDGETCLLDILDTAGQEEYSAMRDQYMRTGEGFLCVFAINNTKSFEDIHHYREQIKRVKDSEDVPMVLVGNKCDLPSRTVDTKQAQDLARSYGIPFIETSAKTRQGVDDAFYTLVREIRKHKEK
KRAS G12D, sequence (P62937 whole entry): as the sequence (P62937 whole entry) above
NRAS WT, sequence (P01111 whole entry): as the sequence (P01111 whole entry G12C) above, with C12G counted along it
NRAS WT, sequence (P62937 whole entry): as the sequence (P62937 whole entry) above
K-Ras G12C, sequence (P01116-2 other isoform, or with tags, fused parts or gaps G12C): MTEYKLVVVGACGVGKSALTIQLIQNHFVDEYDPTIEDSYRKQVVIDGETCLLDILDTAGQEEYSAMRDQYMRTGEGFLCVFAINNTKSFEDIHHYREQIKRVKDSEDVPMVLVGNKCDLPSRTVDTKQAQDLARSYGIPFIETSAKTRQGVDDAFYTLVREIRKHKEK
K-Ras G12C, sequence (P62937 whole entry): as the sequence (P62937 whole entry) above
NRAS Q61R, sequence (P01111 whole entry Q61R): as the sequence (P01111 whole entry G12C) above, with C12G, Q61R counted along it
NRAS Q61R, sequence (P62937 whole entry): as the sequence (P62937 whole entry) above
KRAS Q61H, sequence (P01116-2 other isoform, or with tags, fused parts or gaps Q61H): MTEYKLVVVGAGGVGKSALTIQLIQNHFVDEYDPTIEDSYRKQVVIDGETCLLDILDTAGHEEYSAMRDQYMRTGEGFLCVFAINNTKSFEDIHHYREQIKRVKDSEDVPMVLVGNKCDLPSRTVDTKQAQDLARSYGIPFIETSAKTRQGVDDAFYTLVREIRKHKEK
KRAS Q61H, sequence (P62937 whole entry): as the sequence (P62937 whole entry) above
KRAS G12V, sequence (P01116-2 other isoform, or with tags, fused parts or gaps G12V): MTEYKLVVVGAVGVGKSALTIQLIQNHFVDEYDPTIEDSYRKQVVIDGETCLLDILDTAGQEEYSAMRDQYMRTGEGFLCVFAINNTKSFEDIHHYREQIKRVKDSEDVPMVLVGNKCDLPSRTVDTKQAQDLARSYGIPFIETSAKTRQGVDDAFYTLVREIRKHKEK
KRAS G12V, sequence (P62937 whole entry): as the sequence (P62937 whole entry) above

Row | Structure (SMILES) | IC50 [1] | EC50 [2] | IC50 [3] | IC50 [4] | IC50 [5] | IC50 [6] | IC50 [7] | IC50 [8] | IC50 [9] | IC50 [10] | IC50 [11] | IC50 [12] | IC50 [13]
1 | C=CC(=O)N1CC[C@H](C(=O)N(C)[C@H](C(=O)N[C@H]2CC3=CCCN(C3)c3ccc4c(c3)c(c(-c3cccnc3[C@H](C)OC)n4CC)CC(C)(C)COC(=O)[C@@H]3CCCN(N3)C2=O)C(C)C)C1 (atropisomer, axis not shown) [Example A486] | > 10000 nM | < 5000 nM | > 10000 nM | > 10000 nM | > 10000 nM | > 10000 nM | > 10000 nM | > 10000 nM | > 10000 nM | 100 to 1000 nM | 1000 to 10000 nM | > 10000 nM | 100 to 1000 nM
2 | CO[C@@H](C)c1ncc(N2CCN(C)CC2)cc1-c1c2c3cc(ccc3n1CC(F)(F)F)-c1cccc(c1)C[C@H](NC(=O)[C@H](C(C)C)N(C)C(=O)C1(F)CCN(C(=O)C#CC(C)(C)N(C)C)CC1)C(=O)N1CCC[C@H](N1)C(=O)OCC(C)(C)C2 (atropisomer, axis not shown) [Example A542, 1-(4-(dimethylamino)-4-methylpent-2-ynoyl)-4-fluoro-N-((2S)-1-(((6^3S,4S)-1^2-(2-((S)-1-methoxyethyl)-5-(4-methylpiperazin-1-yl)pyridin-3-yl)-10,10-dimethyl-5,7-dioxo-1^1-(2,2,2-trifluoroethyl)-6^1,6^2,6^3,6^4,6^5,6^6-hexahydro-1^1H-8-oxa-1(5,3)-indola-6(1,3)-pyridazina-2(1,3)-benzenacycloundecaphane-4-yl)amino)-3-methyl-1-oxobutan-2-yl)-N-methylpiperidine-4-carboxamide] | 10 to 100 nM | < 5000 nM | 10 to 100 nM | 10 to 100 nM | 10 to 100 nM | 10 to 100 nM | 10 to 100 nM | 10 to 100 nM | 10 to 100 nM | < 10 nM | < 10 nM | 100 to 1000 nM | < 10 nM
3 | CO[C@@H](C)c1ncccc1-c1c2c3cc(ccc3n1CC(F)(F)F)-c1csc(n1)C[C@H](NC(=O)[C@H](C(C)C)N(C)C(=O)N1C[C@@H]3OCCN(C(=O)/C=C/CF)[C@@H]3C1)C(=O)N1CCC[C@H](N1)C(=O)OCC(C)(C)C2 (atropisomer, axis not shown) [Example A571] | 100 to 1000 nM | < 5000 nM | 100 to 1000 nM | 100 to 1000 nM | 100 to 1000 nM | 100 to 1000 nM | 1000 to 10000 nM | 100 to 1000 nM | 100 to 1000 nM | 100 to 1000 nM | 10 to 100 nM | 1000 to 10000 nM | 100 to 1000 nM
4 | CO[C@@H](C)c1ncccc1-c1c2c3cc(ccc3n1CC(F)(F)F)-c1csc(n1)C[C@H](NC(=O)[C@H](C(C)C)N(C)C(=O)N1C[C@@H]3OCCN(C(=O)/C=C/C(F)F)[C@@H]3C1)C(=O)N1CCC[C@H](N1)C(=O)OCC(C)(C)C2 (atropisomer, axis not shown) [Example A572] | 100 to 1000 nM | < 5000 nM | 100 to 1000 nM | 100 to 1000 nM | 100 to 1000 nM | 100 to 1000 nM | 1000 to 10000 nM | 100 to 1000 nM | 100 to 1000 nM | 10 to 100 nM | 10 to 100 nM | 1000 to 10000 nM | 10 to 100 nM
5 | CO[C@@H](C)c1ncccc1-c1c2c3cc(ccc3n1CC(F)(F)F)-c1csc(n1)C[C@H](NC(=O)[C@H](C(C)C)N(C)C(=O)N1C[C@@H]3OCCN(C(=O)/C=C/CN(C)C)[C@@H]3C1)C(=O)N1CCC[C@H](N1)C(=O)OCC(C)(C)C2 (atropisomer, axis not shown) [Example A573] | 100 to 1000 nM | < 5000 nM | 100 to 1000 nM | 1000 to 10000 nM | 100 to 1000 nM | 100 to 1000 nM | 100 to 1000 nM | 100 to 1000 nM | 100 to 1000 nM | 10 to 100 nM | 10 to 100 nM | 1000 to 10000 nM | 10 to 100 nM
6 | CO[C@@H](C)c1ncccc1-c1c2c3cc(ccc3n1CC(F)(F)F)-c1nc(nn1C)C[C@H](NC(=O)[C@H](C(C)C)N(C)C(=O)C1(F)CCN(C(=O)C#CC(C)(C)N(C)C)CC1)C(=O)N1CCC[C@H](N1)C(=O)OCC(C)(C)C2 (atropisomer, axis not shown) [Example A577] | 100 to 1000 nM | < 5000 nM | 10 to 100 nM | 100 to 1000 nM | 10 to 100 nM | 10 to 100 nM | 100 to 1000 nM | 10 to 100 nM | 10 to 100 nM | < 10 nM | 10 to 100 nM | 100 to 1000 nM | < 10 nM
7 | C=CC(=O)N1CCO[C@@H]2CCN(C(=O)N(C)[C@H](C(=O)N[C@H]3Cc4nc(cs4)-c4ccc5c(c4)c(c(-c4cccnc4[C@H](C)OC)n5CC)CC(C)(C)COC(=O)[C@@H]4CCCN(N4)C3=O)C(C)C)C[C@@H]21 (atropisomer, axis not shown) [Example A581] | 100 to 1000 nM | < 5000 nM | 100 to 1000 nM | 100 to 1000 nM | 100 to 1000 nM | 100 to 1000 nM | 100 to 1000 nM | 100 to 1000 nM | 100 to 1000 nM | 10 to 100 nM | 100 to 1000 nM | 1000 to 10000 nM | 10 to 100 nM
